Source: the Deep4Chem optical property database
Values belong to the compound of their own block, whether it stands above or below them.

Assay: photoluminescence quantum yield (fraction); solvent given as SMILES

photoluminescence quantum yield (in CN(C)C=O): 0.42
Structure (SMILES): Brc1ccc2[nH]c(-c3ccc(-c4ccc(-c5ccc(-c6nc7cc(Br)ccc7[nH]6)cc5)cc4)cc3)nc2c1

photoluminescence quantum yield (in CC(C)O): 0.09
Structure (SMILES): CCN1C(=CC2=C([O-])C(=CC3=[N+](CC)c4ccccc4C3(C)C)C2=O)C(C)(C)c2ccccc21

photoluminescence quantum yield (in ClCCl): 0.86
Structure (SMILES): COC(=O)C1=C(C(=O)OC)C2=C[C@H]3c4ccccc4[C@]2([Se]1)c1ccccc13

Structure (SMILES): c1ccc(-c2nc3c4ccccc4c4ccccc4c3n2-c2cccc(-c3nc4c5ccccc5c5ccccc5c4n3-c3ccccc3)c2)cc1
photoluminescence quantum yield (in Cc1ccccc1): 0.75

Structure (SMILES): Cc1ccc(C(=O)NN2C3=C(CC4=C2CCCC4=O)C(=O)CCC3)cc1
photoluminescence quantum yield (in C1CCOC1): 0.31
photoluminescence quantum yield (in CC#N): 0.55
photoluminescence quantum yield (in CC(C)=O): 0.32
photoluminescence quantum yield (in CCCCCO): 0.5
photoluminescence quantum yield (in CO): 0.4
photoluminescence quantum yield (in ClC(Cl)Cl): 0.77
photoluminescence quantum yield (in ClCCl): 0.44

photoluminescence quantum yield (in CCO): 0.31
Structure (SMILES): CC(C)Nc1cc2c(cc1F)c(=O)c1cc(F)c(NC(C)C)cc1n2C

Structure (SMILES): COc1cc(/C=C/c2ccncc2)c(OC)cc1C=O
photoluminescence quantum yield (in C1CCOC1): 0.11
photoluminescence quantum yield (in CC#N): 0.17
photoluminescence quantum yield (in CN(C)C=O): 0.15
photoluminescence quantum yield (in Cc1ccccc1): 0.09
photoluminescence quantum yield (in ClCCl): 0.26

photoluminescence quantum yield (in CC#N): 0.095
photoluminescence quantum yield (in c1ccccc1): 0.083
Structure (SMILES): Cc1ccc(-c2cc(-c3ccc(N(C)C)cc3)c3c(N)nc(N4CCCC4)c(C#N)c3n2)cc1

photoluminescence quantum yield (in ClCCl): 0.71
Structure (SMILES): CC(C)(C)c1ccc(N(c2ccccc2)c2ccc3ccc4c(N(c5ccccc5)c5ccc(C(C)(C)C)cc5)ccc5ccc2c3c54)cc1

Structure (SMILES): CCCCN1c2ccccc2Sc2cc(/C=C/C3=Nc4ccc5ccccc5c4C3(C)C)ccc21
photoluminescence quantum yield (in C1CCCCC1): 0.09
photoluminescence quantum yield (in C1CCOC1): 0.12
photoluminescence quantum yield (in C1COCCO1): 0.17
photoluminescence quantum yield (in CC#N): 0.05
photoluminescence quantum yield (in CC(C)=O): 0.06
photoluminescence quantum yield (in CC(C)O): 0.07
photoluminescence quantum yield (in CCOC(C)=O): 0.13
photoluminescence quantum yield (in CCOCC): 0.14
photoluminescence quantum yield (in CO): 0.01
photoluminescence quantum yield (in CS(C)=O): 0.09
photoluminescence quantum yield (in Cc1ccccc1): 0.18
photoluminescence quantum yield (in ClCCl): 0.11

photoluminescence quantum yield (in Cc1ccccc1-c1cccc(Oc2cc3c4c(c2)Oc2cc(-c5ccccc5C)ccc2B4c2ccc(-c4ccccc4C)cc2O3)c1): 0.889
photoluminescence quantum yield (in ClCCl): 0.79
Structure (SMILES): Cc1cc(C)c(B2c3cc(C)ccc3N3c4ccc(C)cc4B(c4c(C)cc(C)cc4C)c4cc(C)cc2c43)c(C)c1

photoluminescence quantum yield (in C1COCCO1): 0.11
photoluminescence quantum yield (in CCO): 0.11
photoluminescence quantum yield (in O): 0.009
photoluminescence quantum yield (in OCCO): 0.13
Structure (SMILES): CC1=CC(=[N+]2CCC2)C=C2C1=Nc1c(C)cc(N3CCC3)cc1[Si]2(C)C

photoluminescence quantum yield (in CC#N): 0.39
photoluminescence quantum yield (in CCO): 0.69
photoluminescence quantum yield (in CN(C)C=O): 0.39
photoluminescence quantum yield (in O): 0.34
Structure (SMILES): CCOC(=O)c1ccccc1-c1c2ccc(=[N+](CC)CC)cc-2oc2cc(N(CC)CC)ccc12

photoluminescence quantum yield (in C1CCOC1): 0.002
Structure (SMILES): C1=[N+]2N=C(c3ccccc3)O[B-]2(c2ccc([B-]34OC(c5ccccc5)=N[N+]3=Cc3c(ccc5ccccc35)O4)cc2)Oc2ccc3ccccc3c21 (configuration not stated)

Structure (SMILES): CC(C)(C)c1ccc2c(c1)c1cc(C(C)(C)C)ccc1n2-c1ccc2c(c1)C(=O)c1ccc(-n3c4ccc(C(C)(C)C)cc4c4cc(C(C)(C)C)ccc43)cc1C2=O
photoluminescence quantum yield (in Cc1ccccc1): 0.15
photoluminescence quantum yield (in c1ccc2c(c1)c1ccccc1n2-c1ccc(-c2ccc(-n3c4ccccc4c4ccccc43)cc2)cc1): 0.52

photoluminescence quantum yield (in ClC(Cl)Cl): 0.43
Structure (SMILES): c1ccc(-c2nc(-c3ccccc3)c(N(c3ccccc3)c3ccccc3)s2)cc1

photoluminescence quantum yield (in CCO): 0.4
photoluminescence quantum yield (in ClCCl): 0.51
Structure (SMILES): c1ccc(-c2c3ccccc3c(-c3cncnc3)c3ccccc23)cc1

photoluminescence quantum yield (in ClC(Cl)Cl): 0.542
Structure (SMILES): F[B-]1(F)OC(c2ccc(N3CCCC3)cc2)=Cc2cccc[n+]21

photoluminescence quantum yield (in ClCCl): 0.42
Structure (SMILES): Cc1ccc(-c2cnc3ccc4ccccc4n23)cc1

photoluminescence quantum yield (in ClC(Cl)Cl): 0.55
Structure (SMILES): N#Cc1ccc(Oc2ccc3c4c(cccc24)C(=O)N(CCO)C3=O)cc1

photoluminescence quantum yield (in C1CCOC1): 0.19
photoluminescence quantum yield (in CS(C)=O): 0.17
photoluminescence quantum yield (in ClCCl): 0.24
Structure (SMILES): COCCOCCOCCOc1ccc(/C=C/C2=[N+]3C(=C(c4cc(OC)cc(OC)c4)c4c(C)c(I)c(/C=C/c5ccc(OCCOCCOCCOC)cc5)n4[B-]3(F)F)C(C)=C2I)cc1

Structure (SMILES): Cc1cc(C)c(C2=[N+]3C(=Cc4c(C)cc(C)n4[B-]3(F)F)c3ccccc32)[nH]1
photoluminescence quantum yield (in C1CCOC1): 0.06
photoluminescence quantum yield (in CC#N): 0.02
photoluminescence quantum yield (in CCCCCC): 0.85
photoluminescence quantum yield (in CO): 0.03
photoluminescence quantum yield (in Cc1ccccc1): 0.81
photoluminescence quantum yield (in ClCCl): 0.61

Structure (SMILES): CC[N+]1(CC)CN2C(=N1)C(C(=O)[O-])=Cc1ccccc12
photoluminescence quantum yield (in CN(C)C=O): 0.05
photoluminescence quantum yield (in O): 0.736

Structure (SMILES): c1csc(-c2ccc(-c3cccs3)s2)c1
photoluminescence quantum yield (in CC#N): 0.09
photoluminescence quantum yield (in ClCCl): 0.05

photoluminescence quantum yield (in ClC(Cl)Cl): 0.03
Structure (SMILES): CC1=CC(C)=[N+]2C1=C(C1=C(C)C3=C(C)c4c(C)cc(C)n4[B-](F)(F)[N+]3=C1C)c1c(C)cc(C)n1[B-]2(F)F

Structure (SMILES): c1ccc(-c2ccc3c(c2)c2cc(-c4ccccc4)ccc2n3-c2ccc3c(c2)c2cc(-n4c5ccc(-c6ccccc6)cc5c5cc(-c6ccccc6)ccc54)ccc2n3-c2ccc(-c3nc(-c4ccccc4)nc(-c4ccccc4)n3)cc2)cc1
photoluminescence quantum yield (in Cc1ccccc1): 0.74

photoluminescence quantum yield (in CC#N): 0.156
Structure (SMILES): COc1ccc(-n2nc(C#N)c(N3CCC(N4CCCCC4)CC3)n2)cc1

photoluminescence quantum yield (in CCCCCC): 0.47
photoluminescence quantum yield (in CO): 0.6
photoluminescence quantum yield (in ClCCl): 0.36
Structure (SMILES): CCCCc1ccc2ccc3c(CCCC)ccc4ccc1c2c43

photoluminescence quantum yield (in C1CCCCC1): 0.07
photoluminescence quantum yield (in CC#N): 0.07
Structure (SMILES): C[Si](C)(c1c2ccccc2cc2ccccc12)[Si](C)(C)c1c2ccccc2cc2ccccc12

photoluminescence quantum yield (in CC#N): 0.02
Structure (SMILES): Cc1cc(C)c2nc3c(=O)[nH]c(=O)[nH]c3nc2c1

Structure (SMILES): CC(C)[Si]1(C(C)C)c2cc(C=C(C#N)C#N)ccc2-c2ccc(N(C)C)cc21
photoluminescence quantum yield (in C1CCCCC1): 0.08
photoluminescence quantum yield (in CC#N): 0.32
photoluminescence quantum yield (in CCO): 0.16
photoluminescence quantum yield (in CCOCC): 0.56
photoluminescence quantum yield (in CS(C)=O): 0.23
photoluminescence quantum yield (in ClCCl): 0.56
photoluminescence quantum yield (in c1ccccc1): 0.36

Structure (SMILES): CCN1c2ccc(/C=N/Nc3ccccn3)cc2Sc2cc(-c3ccc(OC)cc3)ccc21
photoluminescence quantum yield (in C1CCOC1): 0.32
photoluminescence quantum yield (in CS(C)=O): 0.55
photoluminescence quantum yield (in Cc1ccccc1): 0.16
photoluminescence quantum yield (in ClCCl): 0.38

Structure (SMILES): Cn1cc(/C=C/C(=O)c2ccccc2)c2ccccc21
photoluminescence quantum yield (in C1CCOC1): 0.1
photoluminescence quantum yield (in C1COCCO1): 0.114
photoluminescence quantum yield (in CC#N): 0.343
photoluminescence quantum yield (in CC(C)=O): 0.329
photoluminescence quantum yield (in CC(C)O): 0.231
photoluminescence quantum yield (in CCC(=O)CC): 0.209
photoluminescence quantum yield (in CCCC#N): 0.217
photoluminescence quantum yield (in CCCC(C)=O): 0.22
photoluminescence quantum yield (in CCCCCCCCO): 0.345
photoluminescence quantum yield (in CCCCCCO): 0.428
photoluminescence quantum yield (in CCCCO): 0.333
photoluminescence quantum yield (in CCCO): 0.5
photoluminescence quantum yield (in CCO): 0.173
photoluminescence quantum yield (in CN(C)C=O): 0.245
photoluminescence quantum yield (in CO): 0.162
photoluminescence quantum yield (in CS(C)=O): 0.62
photoluminescence quantum yield (in ClC(Cl)Cl): 0.14
photoluminescence quantum yield (in ClCCl): 0.394
photoluminescence quantum yield (in NC=O): 0.277
photoluminescence quantum yield (in O): 0.12
photoluminescence quantum yield (in OC1CCCCC1): 0.778

photoluminescence quantum yield (in ClCCl): 0.07
Structure (SMILES): Cc1ccc(-c2ccc(C(=O)NC(C)(C)C)c3c2ccc2c4ccccc4c4ccccc4c23)cc1

photoluminescence quantum yield (in CCO): 0.02
Structure (SMILES): O=CC1=C(c2ccc(-c3cccs3)s2)CCC1

photoluminescence quantum yield (in ClCCl): 0.1
Structure (SMILES): Nc1cccc2c1ccc1[n+]2[B-](F)(F)n2c-1cc1c3ccccc3c3ccccc3c12

photoluminescence quantum yield (in ClC(Cl)Cl): 0.18
Structure (SMILES): F[B-]1(F)n2cccc2C(c2ccccc2)=C2C=CC(c3cccc(OC4=[N+]5C(=C(c6ccccc6)c6cc(Br)c(-c7ccc[nH]7)n6[B-]5(F)F)C=C4Br)c3)=[N+]21

photoluminescence quantum yield (in C1CCOC1): 0.53
photoluminescence quantum yield (in CC#N): 0.47
photoluminescence quantum yield (in CCO): 0.45
photoluminescence quantum yield (in CO): 0.44
photoluminescence quantum yield (in ClCCl): 0.5
Structure (SMILES): O=C1C2=C(O[B-](F)(F)[n+]3c2ccc2ccccc23)c2cccc3c(N4CCOCC4)ccc1c23

photoluminescence quantum yield (in ClC(Cl)Cl): 0.03
Structure (SMILES): CCOC(=O)/C(C)=C/C1=C(c2ccc(C)cc2)C2=Nc3c(-c4ccc(C)cc4)c(Br)c(-c4ccc(C)cc4)n3[B-](F)(F)[N+]2=C1c1ccc(C)cc1

photoluminescence quantum yield (in ClCCl): 0.12
Structure (SMILES): CC(C)[Si](C#Cc1c2cc3ccccc3cc2c(C#Cc2ccc(Br)cc2)c2cc3ccccc3cc12)(C(C)C)C(C)C

photoluminescence quantum yield (in C1CCOC1): 0.24
photoluminescence quantum yield (in CC#N): 0.01
photoluminescence quantum yield (in CCO): 0.01
photoluminescence quantum yield (in CCOC(C)=O): 0.35
photoluminescence quantum yield (in CN(C)C=O): 0.02
photoluminescence quantum yield (in ClCCl): 0.22
photoluminescence quantum yield (in c1ccccc1): 0.9
Structure (SMILES): O=C(c1ccc(N(c2ccccc2)c2ccccc2)cc1)[C@H]1[C@H](c2cccs2)C[C@](O)(c2ccccn2)C[C@]1(O)c1ccccn1

photoluminescence quantum yield (in ClCCl): 0.39
Structure (SMILES): C[Si]1(C)O[Si](C)(C)c2cc3c(-c4ccc(F)cc4)c4ccccc4nc3cc21

photoluminescence quantum yield (in ClCCl): 0.03
Structure (SMILES): OB1c2ccccc2Nc2ccccc21

Structure (SMILES): F[B-]1(F)n2c(c3cccc4cccc2c43)=Nc2sc3ccccc3[n+]21
photoluminescence quantum yield (in C1CCOC1): 0.89
photoluminescence quantum yield (in CC#N): 0.97
photoluminescence quantum yield (in CCCCCC): 0.87
photoluminescence quantum yield (in Cc1ccccc1): 0.76
photoluminescence quantum yield (in ClCCl): 0.85

photoluminescence quantum yield (in ClC(Cl)Cl): 0.15
Structure (SMILES): Cc1ccc(/C2=c3\cc/c(o3)=C(\c3ccc(C)cc3)c3ccc([nH]3)-c3ccc4n3[P-](=O)(=O)[N+]3=C(C=CC3=C4c3ccc[nH]3)c3ccc2[nH]3)cc1

photoluminescence quantum yield (in CC#N): 0.00144
photoluminescence quantum yield (in CCCCO): 0.0114
photoluminescence quantum yield (in CCCO): 0.00864
photoluminescence quantum yield (in CCO): 0.00427
photoluminescence quantum yield (in CO): 0.00252
Structure (SMILES): Cc1cnc(NC(=O)C2=C([O-])c3ccccc3S(=O)(=O)N2C)s1

Structure (SMILES): COc1ccc2c(c1)sc1[n+]2[B-](F)(F)OC(c2ccc(N(C)C)cc2)=N1
photoluminescence quantum yield (in C1CCOC1): 0.8
photoluminescence quantum yield (in CC#N): 0.38
photoluminescence quantum yield (in CC(C)=O): 0.56
photoluminescence quantum yield (in Cc1ccccc1): 0.88
photoluminescence quantum yield (in ClCCl): 0.83

Structure (SMILES): COc1ccc(C2=[N+]3C(=Nc4c5c6cc(OC)c(OC)c(OC)c6c6cc(C(C)(C)C)ccc6c5c(-c5ccc(OC)cc5)n4[B-]3(F)F)c3c2c2ccc(C(C)(C)C)cc2c2c(OC)c(OC)c(OC)cc32)cc1
photoluminescence quantum yield (in Cc1ccccc1): 0.35
